Test results taken from US20230406853A1, “COVALENT CDK2-BINDING COMPOUNDS FOR THERAPEUTIC PURPOSES” (Umbra Therapeutics, Inc., priority 2021, published 2023).

Target: CycE1-CDK2 (Homo sapiens, UniProt P24941)
Test: Cdk2 Enzymatic TR-FRET Assay
Format: biochemical
Details: CDK2/CycE 5 nM, ATP 100 μM, 60 minutes pre-incubation with compound; read-out: CDK2 Kinase
Excerpt: A TR-FRET system was used to detect CycE1-CDK2 kinase activity. The assay used a Europium-labeled anti-phospho-Ser/Thr antibody and ULight™-labeled peptide substrate (eIF4E-binding protein 1). When CycE1-CDK2 phosphorylates the peptide the phosphorylated Thr is recognized by the Europium-labeled anti-phospho-Ser/Thr antibody. Upon excitation of the Europium donor fluorophore at 337 nm, energy is transferred to the ULight™ acceptor dye on the substrate, resulting in the emission of light at 665 nm. The fluorescent signal is proportional to the level of ULight™ peptide phosphorylation and to the kinase activity.
The stock solution was prepared as follows: • 1× Reaction buffer: 50 mM HEPES pH 7.5, 10 mM MgCl2, 0.5 mM TCEP, 0.01% Tween®20, 1 mM EGTA, 0.001% fatty acid free (faf)-BSA; • 1× Detection buffer: equilibrate the Detection buffer at RT for at least 20 minutes then dilute 10-fold the stock in water; • 4×ENZYME mix: CDK2/CycE enzyme (5 nM final concentration in kinase reaction) in 1× Reaction buffer; • 4×SUBSTRATE mix: 4E-BP substrate (50 nM final concentration in kinase reaction)+ATP (100 μM final concentration in kinase reaction) in 1× Reaction buffer • 2×STOP/DETECTION mix: EDTA (10 mM final concentration in assay)+Anti-Phosphate antibody (0.5 nM final concentration in assay) in 1× Detection buffer • Neutral Control: Assay with no inhibition (MAX activity) • Inhibitor Control: Assay with IC100 (1 mM) reference inhibitor JNJ7706621 (MIN activity)
The assay was assembled directly in a white, small volume, Proxiplate (PerkinElmer) as follows: • Step 1: Charge compounds=5 μL/well • Step 2: Charge kinase=2.5 μL/well→total volume 7.5 μL/well • The plate is sealed and incubated at room temperature for 60 minutes • Step 3: Substrate mix (substrate/ATP)=2.5 μL/well→total enzymatic reaction volume 10 μL/well • The plate is sealed and incubated at room temperature for 60 minutes • Step 4: Stop/Detection mix (EDTA/antibody)=10 μL/well→total volume 20 μL/well • The plate is sealed and incubated at room temperature for at least 2 hours and fluorescence signal is measured at PHERAstar FSX The reading conditions are the followings for PHERAstar FSX:
A 384-microtiter plate (MTP), containing 20 test compounds in eight-points dose response, is prepared. Test compounds dose response curves are prepared in automation in 100% DMSO in a CyBio Felix, starting from a DMSO stock solution of 10 mM. To obtain the eight-points dose-response curve, a serial dilution protocol in 100% DMSO is performed for each compound by using a 96 MTP as a support. 20 μL of the 10 mM stock solutions are transferred in row A of a 96 MTP U-bottom from column 2 to 11 for a total of 10 compounds/plate. Starting from the 10 mM stock, serial dilutions across rows, from A to B and proceeding up to H, are performed for each compound by transferring 6.3 μL of the more concentrated fluid in 13.7 μL of 100% DMSO.
In order to generate duplicate data points each well of the 96 MTP is then replicated into two wells of a 384 MTP plate for each compound and for each concentration to be tested. The 384 MTP compound plate is used as source plate in a “mother to child” process with a CyBi®-Well dispenser in which 1 μL of compound is moved into a destination plate pre-filled with 24 μL of reaction buffer, obtaining 2× concentrated compound solution.
Genedata Screener® 17.0 was used for data analysis. In the implemented workflow, the following calculations were conducted: • Calculate the Response Value (KRV) from the respective original data as follow:
HTRF Assay: Ratio=665 nm_FRET/620 nm_Ab*10000 • Calculate the % Inhibition of the compound (Inhibitory effect). KRV was normalized versus Neutral Controls and Inhibitor Controls (JNJ7706621) to obtain Activity % according to the following formula:
Activity %=−100*(x−<Neutral Control>)/(<Inhibitor Control>−<Neutral Control>) […]

IC50: < 10 µM
SMILES: CC(C(=O)Nc1ccc(S(=O)(=O)n2cnc(-c3ccccc3)n2)cc1)n1c(=O)ccc2cnc(NC3CCN(S(C)(=O)=O)CC3)nc21 (stereo not shown) [Compound 293]
